According to patent publication US12371454B2, “Cyclic peptide compound having Kras inhibitory action” (priority 2019, dated 2025):
Starred links: 1 amine or outer side, 2 acyl side, 3 side chain; linkers in the order of their positions; H or OH if unused. Positions of bridges follow the written chain, without caps; N, C: chain ends. Non-standard residues stand in square brackets, D forms with d. Residues, ends and D or L forms follow the SMILES beside them. *: point of attachment. hPhe(3,5-F2-4-CF3) = N[C@@H](CCc1cc(F)c(C(F)(F)F)c(F)c1)C(=O)O; hPhe(3-Cl-4-CF3) = N[C@@H](CCc1ccc(C(F)(F)F)c(Cl)c1)C(=O)O; X38 = CN([C@@H](Cc1cccc(OC(F)(F)F)c1)C(=O)[*:2])[*:1]; NMePhe(4-CF3) = CN[C@@H](Cc1ccc(C(F)(F)F)cc1)C(=O)O; NMePhe(3,4-F2) = CN[C@@H](Cc1ccc(F)c(F)c1)C(=O)O; X5 = CC(C)(C)NC(=O)COC[C@H](CC(=O)[*:1])N[*:2]; NMePhe(3-OMe) = CN[C@@H](Cc1cccc(OC)c1)C(=O)O; NMePhe(4-CN) = CN[C@@H](Cc1ccc(C#N)cc1)C(=O)O; NMePhe(4-Me) = CN[C@@H](Cc1ccc(C)cc1)C(=O)O; NMePhe(3-I) = CN[C@@H](Cc1cccc(I)c1)C(=O)O; NMePhe(4-F) = CN[C@@H](Cc1ccc(F)cc1)C(=O)O; NMePhe(4-I) = CN[C@@H](Cc1ccc(I)cc1)C(=O)O; dβ3hPip = O=C(C[C@H]1CCCCN1[*:1])[*:2]; NMe4Pal = CN[C@@H](Cc1ccncc1)C(=O)O; NMeY = CN[C@@H](Cc1ccc(O)cc1)C(=O)O; NMeI = CC[C@H](C)[C@H](NC)C(=O)O; d(β3hL) = CC(C)C[C@@H](N)CC(=O)O; dNMeF = CN[C@H](Cc1ccccc1)C(=O)O; NMeD = CN[C@@H](CC(=O)O)C(=O)O; NMeL = CN[C@@H](CC(C)C)C(=O)O; NMeA = CN[C@@H](C)C(=O)O; Piperidide = C1CCN(*)CC1; Ac5c = NC1(C(=O)O)CCCC1; Aze = O=C(O)[C@@H]1CCN1; Sar = CNCC(=O)O

Target: T1, Kras and SOS1 (biotin-tagged human Kras loaded with GDP, His-tagged human SOS1) (Homo sapiens, UniProt P01116, G12D)
T1 construct: made in house; host or cells: E. coli (stated for Kras only)
Assay: Protein-protein interaction inhibition between Kras and SOS1 (KrasGl2D-SOS PPI) using AlphaScreen
Type: binding
Conditions: AlphaScreen; biotin-tagged human Kras loaded with GDP, His-tagged human SOS1; read-out: KRAS G12D-SOS PPI IC50
Method in brief: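 Kras was produced in E. coli, purified, then loaded with GDP. It was paired via streptavidin acceptor beads with His-SOS1 held on nickel donor beads, and proximity signal at 520-620 nm was read after 680 nm illumination.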

T1 sequence (P01116 1-188 isoform P01116-2 G12D): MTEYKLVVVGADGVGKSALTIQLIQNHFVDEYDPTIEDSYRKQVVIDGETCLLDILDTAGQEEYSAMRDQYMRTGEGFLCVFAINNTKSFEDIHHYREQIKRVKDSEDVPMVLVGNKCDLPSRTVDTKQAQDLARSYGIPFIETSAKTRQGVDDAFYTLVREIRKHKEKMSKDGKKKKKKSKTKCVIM

| SMILES | IC50 [nM] |
| --- | --- |
| CC[C@H](C)[C@@H]1NC(=O)[C@H](CC(C)C)N(C)C(=O)C[C@@H](C(=O)N(C)C)N(C)C(=O)[C@H]([C@@H](C)CC)N(C)C(=O)C2(CCCC2)NC(=O)[C@H](Cc2cccc(I)c2)N(C)C(=O)[C@H](CCc2ccc(C(F)(F)F)c(Cl)c2)NC(=O)CN(C)C(=O)[C@H](Cc2ccc(C)cc2)N(C)C(=O)[C@@H]2CCN2C(=O)[C@H](C)N(C)C1=O [Compound 1910] ([NMeL]I[NMeA][Aze][NMePhe(4-Me)][Sar][hPhe(3-Cl-4-CF3)][NMePhe(3-I)][Ac5c][NMeI][NMeD]-NMe2; lactam N-11) | 60 |
| CC[C@H](C)[C@@H]1NC(=O)[C@H](CC(C)C)N(C)C(=O)C[C@H]2CCCCN2C(=O)[C@H]([C@@H](C)CC)N(C)C(=O)C2(CCCC2)NC(=O)[C@@H]2CCCN2C(=O)[C@H](CCc2ccc(C(F)(F)F)c(Cl)c2)NC(=O)CN(C)C(=O)[C@H](Cc2ccc(C)cc2)N(C)C(=O)[C@@H]2CCN2C(=O)[C@H](C)N(C)C1=O [Compound 1912] (cyclo([Ac5c][NMeI][dβ3hPip][NMeL]I[NMeA][Aze][NMePhe(4-Me)][Sar][hPhe(3-Cl-4-CF3)]P)) | 27 |
| CC[C@H](C)[C@@H]1NC(=O)[C@H](C)N(C)C(=O)C[C@@H](C(=O)N(C)C)N(C)C(=O)[C@H]([C@@H](C)CC)N(C)C(=O)C2(CCCC2)NC(=O)[C@H](Cc2ccc(F)cc2)N(C)C(=O)[C@H](CCc2cc(F)c(C(F)(F)F)c(F)c2)NC(=O)CN(C)C(=O)[C@H](Cc2ccc(C)cc2)N(C)C(=O)[C@@H]2CCN2C(=O)[C@H](C)N(C)C1=O [Compound 1914] ([NMeA]I[NMeA][Aze][NMePhe(4-Me)][Sar][hPhe(3,5-F2-4-CF3)][NMePhe(4-F)][Ac5c][NMeI][NMeD]-NMe2; lactam N-11) | 7.7 |
| CC[C@H](C)[C@@H]1NC(=O)[C@H](CC(C)C)N(C)C(=O)C[C@@H](CC(C)C)NC(=O)[C@H]([C@@H](C)CC)N(C)C(=O)C2(CCCC2)NC(=O)[C@@H]2CCCN2C(=O)[C@H](CCc2cc(F)c(C(F)(F)F)c(F)c2)NC(=O)CN(C)C(=O)[C@H](Cc2ccc(C(F)(F)F)cc2)N(C)C(=O)[C@@H]2CCN2C(=O)[C@H](C)N(C)C1=O [Compound 1918] (cyclo([Ac5c][NMeI][d(β3hL)][NMeL]I[NMeA][Aze][NMePhe(4-CF3)][Sar][hPhe(3,5-F2-4-CF3)]P)) | 280 |
| CC[C@H](C)[C@@H]1NC(=O)[C@H](C)N(C)C(=O)C[C@@H](C(=O)N(C)C)N(C)C(=O)[C@H]([C@@H](C)CC)N(C)C(=O)C2(CCCC2)NC(=O)[C@H](Cc2cccc(OC)c2)N(C)C(=O)[C@H](CCc2ccc(C(F)(F)F)c(Cl)c2)NC(=O)CN(C)C(=O)[C@H](Cc2ccc(C)cc2)N(C)C(=O)[C@@H]2CCN2C(=O)[C@H](C)N(C)C1=O [Compound 1922] ([NMeA]I[NMeA][Aze][NMePhe(4-Me)][Sar][hPhe(3-Cl-4-CF3)][NMePhe(3-OMe)][Ac5c][NMeI][NMeD]-NMe2; lactam N-11) | 3.1 |
| CC[C@H](C)[C@@H]1NC(=O)[C@H](CC(C)C)N(C)C(=O)C[C@@H](C(=O)N(C)C)N(C)C(=O)[C@H]([C@@H](C)CC)N(C)C(=O)C2(CCCC2)NC(=O)[C@H](Cc2ccc(C#N)cc2)N(C)C(=O)[C@H](CCc2ccc(C(F)(F)F)c(Cl)c2)NC(=O)CN(C)C(=O)[C@H](Cc2ccc(C)cc2)N(C)C(=O)[C@@H]2CCN2C(=O)[C@H](C)N(C)C1=O [Compound 1927] ([NMeL]I[NMeA][Aze][NMePhe(4-Me)][Sar][hPhe(3-Cl-4-CF3)][NMePhe(4-CN)][Ac5c][NMeI][NMeD]-NMe2; lactam N-11) | 3.3 |
| CC[C@H](C)[C@@H]1NC(=O)[C@H](CC(C)C)N(C)C(=O)C[C@@H](C(=O)N(C)C)N(C)C(=O)[C@H]([C@@H](C)CC)N(C)C(=O)C2(CCCC2)NC(=O)[C@H](Cc2ccc(OC)cc2)N(C)C(=O)[C@H](CCc2ccc(C(F)(F)F)c(Cl)c2)NC(=O)CN(C)C(=O)[C@H](Cc2ccc(C)cc2)N(C)C(=O)[C@@H]2CCN2C(=O)[C@H](C)N(C)C1=O [Compound 1935] ([NMeL]I[NMeA][Aze][NMePhe(4-Me)][Sar][hPhe(3-Cl-4-CF3)][NMeY](Me)[Ac5c][NMeI][NMeD]-NMe2; lactam N-11) | 11 |
| CC[C@H](C)[C@@H]1NC(=O)[C@H](C)N(C)C(=O)C[C@@H](C(=O)N2CCCCC2)N(C)C(=O)[C@H]([C@@H](C)CC)N(C)C(=O)C2(CCCC2)NC(=O)[C@@H](Cc2ccccc2)N(C)C(=O)[C@H](CCc2ccc(C(F)(F)F)c(Cl)c2)NC(=O)CN(C)C(=O)[C@H](Cc2ccc(C(F)(F)F)cc2)N(C)C(=O)[C@@H]2CCN2C(=O)[C@H](C)N(C)C1=O [Compound 1942] ([NMeA]I[NMeA][Aze][NMePhe(4-CF3)][Sar][hPhe(3-Cl-4-CF3)][dNMeF][Ac5c][NMeI][NMeD]-Piperidide; lactam N-11) | 290 |
| CC[C@H](C)[C@@H]1NC(=O)[C@H](CC(C)C)N(C)C(=O)C[C@@H](C(=O)N(C)C)N(C)C(=O)[C@H]([C@@H](C)CC)N(C)C(=O)C2(CCCC2)NC(=O)[C@H](Cc2ccc(F)c(F)c2)N(C)C(=O)[C@H](CCc2ccc(C(F)(F)F)c(Cl)c2)NC(=O)CN(C)C(=O)[C@H](Cc2ccc(C)cc2)N(C)C(=O)[C@@H]2CCN2C(=O)[C@H](C)N(C)C1=O [Compound 1943] ([NMeL]I[NMeA][Aze][NMePhe(4-Me)][Sar][hPhe(3-Cl-4-CF3)][NMePhe(3,4-F2)][Ac5c][NMeI][NMeD]-NMe2; lactam N-11) | 8 |
| CC[C@H](C)[C@@H]1NC(=O)[C@H](C)N(C)C(=O)C[C@@H](C(=O)N(C)C)N(C)C(=O)[C@H]([C@@H](C)CC)N(C)C(=O)C2(CCCC2)NC(=O)[C@H](Cc2cccc(I)c2)N(C)C(=O)[C@H](CCc2ccc(C(F)(F)F)c(Cl)c2)NC(=O)CN(C)C(=O)[C@H](Cc2ccc(C)cc2)N(C)C(=O)[C@@H]2CCN2C(=O)[C@H](C)N(C)C1=O [Compound 1944] ([NMeA]I[NMeA][Aze][NMePhe(4-Me)][Sar][hPhe(3-Cl-4-CF3)][NMePhe(3-I)][Ac5c][NMeI][NMeD]-NMe2; lactam N-11) | 45 |
| CC[C@H](C)[C@@H]1NC(=O)[C@H](C)N(C)C(=O)C[C@@H](C(=O)N(C)C)N(C)C(=O)[C@H]([C@@H](C)CC)N(C)C(=O)C2(CCCC2)NC(=O)[C@H](Cc2cccc(OC(F)(F)F)c2)N(C)C(=O)[C@H](CCc2ccc(C(F)(F)F)c(Cl)c2)NC(=O)CN(C)C(=O)[C@H](Cc2ccc(C)cc2)N(C)C(=O)[C@@H]2CCN2C(=O)[C@H](C)N(C)C1=O [Compound 1945] ([NMeA]I[NMeA][Aze][NMePhe(4-Me)][Sar][hPhe(3-Cl-4-CF3)][X38][Ac5c][NMeI][NMeD]-NMe2; lactam N-11) | 18 |
| CC[C@H](C)[C@@H]1NC(=O)[C@H](C)N(C)C(=O)C[C@@H](C(=O)N(C)C)N(C)C(=O)[C@H]([C@@H](C)CC)N(C)C(=O)C2(CCCC2)NC(=O)[C@H](Cc2ccc(F)cc2)N(C)C(=O)[C@H](CCc2ccc(C(F)(F)F)c(Cl)c2)NC(=O)CN(C)C(=O)[C@H](Cc2ccc(C(F)(F)F)cc2)N(C)C(=O)[C@@H]2CCN2C(=O)[C@H](C)N(C)C1=O [Compound 1951] ([NMeA]I[NMeA][Aze][NMePhe(4-CF3)][Sar][hPhe(3-Cl-4-CF3)][NMePhe(4-F)][Ac5c][NMeI][NMeD]-NMe2; lactam N-11) | 9.9 |
| CC[C@H](C)[C@@H]1NC(=O)[C@H](CC(C)C)N(C)C(=O)C[C@@H](C(=O)N(C)C)N(C)C(=O)[C@H]([C@@H](C)CC)N(C)C(=O)C2(CCCC2)NC(=O)[C@H](Cc2ccc(F)cc2)N(C)C(=O)[C@H](CCc2cc(F)c(C(F)(F)F)c(F)c2)NC(=O)CN(C)C(=O)[C@H](Cc2ccc(C)cc2)N(C)C(=O)[C@@H]2CCN2C(=O)[C@H](C)N(C)C1=O [Compound 1952] ([NMeL]I[NMeA][Aze][NMePhe(4-Me)][Sar][hPhe(3,5-F2-4-CF3)][NMePhe(4-F)][Ac5c][NMeI][NMeD]-NMe2; lactam N-11) | 8.1 |
| CC[C@H](C)[C@@H]1NC(=O)[C@H](C)N(C)C(=O)C[C@@H](C(=O)N(C)C)N(C)C(=O)[C@H]([C@@H](C)CC)N(C)C(=O)C2(CCCC2)NC(=O)[C@H](Cc2ccc(I)cc2)N(C)C(=O)[C@H](CCc2ccc(C(F)(F)F)c(Cl)c2)NC(=O)CN(C)C(=O)[C@H](Cc2ccc(C)cc2)N(C)C(=O)[C@@H]2CCN2C(=O)[C@H](C)N(C)C1=O [Compound 1953] ([NMeA]I[NMeA][Aze][NMePhe(4-Me)][Sar][hPhe(3-Cl-4-CF3)][NMePhe(4-I)][Ac5c][NMeI][NMeD]-NMe2; lactam N-11) | 51 |
| CC[C@H](C)[C@@H]1NC(=O)[C@H](C)N(C)C(=O)C[C@@H](C(=O)N(C)C)N(C)C(=O)[C@H]([C@@H](C)CC)N(C)C(=O)C2(CCCC2)NC(=O)[C@H](Cc2ccc(C#N)cc2)N(C)C(=O)[C@H](CCc2ccc(C(F)(F)F)c(Cl)c2)NC(=O)CN(C)C(=O)[C@H](Cc2ccc(C)cc2)N(C)C(=O)[C@@H]2CCN2C(=O)[C@H](C)N(C)C1=O [Compound 1959] ([NMeA]I[NMeA][Aze][NMePhe(4-Me)][Sar][hPhe(3-Cl-4-CF3)][NMePhe(4-CN)][Ac5c][NMeI][NMeD]-NMe2; lactam N-11) | 5.2 |
| CC[C@H](C)[C@@H]1NC(=O)[C@H](CC(C)C)N(C)C(=O)C[C@@H](COCC(=O)NC(C)(C)C)NC(=O)[C@H]([C@@H](C)CC)N(C)C(=O)C2(CCCC2)NC(=O)[C@@H]2CCCN2C(=O)[C@H](CCc2ccc(C(F)(F)F)c(Cl)c2)NC(=O)CN(C)C(=O)[C@H](Cc2ccc(C)cc2)N(C)C(=O)[C@@H]2CCN2C(=O)[C@H](C)N(C)C1=O [Compound 1960] ([NMeL]I[NMeA][Aze][NMePhe(4-Me)][Sar][hPhe(3-Cl-4-CF3)]P[Ac5c][NMeI]; linker N-C via X5) | 56 |
| CC[C@H](C)[C@@H]1NC(=O)[C@H](CC(C)C)N(C)C(=O)C[C@@H](C(=O)N(C)C)N(C)C(=O)[C@H]([C@@H](C)CC)N(C)C(=O)C2(CCCC2)NC(=O)[C@H](Cc2ccncc2)N(C)C(=O)[C@H](CCc2ccc(C(F)(F)F)c(Cl)c2)NC(=O)CN(C)C(=O)[C@H](Cc2ccc(C)cc2)N(C)C(=O)[C@@H]2CCN2C(=O)[C@H](C)N(C)C1=O [Compound 1962] ([NMeL]I[NMeA][Aze][NMePhe(4-Me)][Sar][hPhe(3-Cl-4-CF3)][NMe4Pal][Ac5c][NMeI][NMeD]-NMe2; lactam N-11) | 1.4 |
